Laboratory results published in US20250136577A1, “HETEROCYCLIC DERIVATIVES AS MALT1 INHIBITORS” (C4X Discovery Limited, priority 2022, published 2025).

What was measured:
[1] = biological target: MALT1-GS-Ub (6-His-hMALT-1 residues 339-715 fused to ubiquitin) (Homo sapiens (Human), UniProt Q9UDY8); assay: MALT1 Protease Assay 1 (Assay 1), cleavage of fluorogenic tetrapeptide substrate; type: biochemical; settings: MALT1-GS-Ub 300-600 nM, Ac-LVSR-AMC 100 μM, 30 min preincubation, 60 min read
Procedure, shortened: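 E. coli-expressed MALT1-GS-Ub (300–600 nM) preincubated 30 min at room temperature with compound (1% DMSO final), then Ac-LVSR-AMC (100 μM) added in 50 mM HEPES pH 7.0, 25 mM KCl, 0.1% CHAPS, 1 mM TCEP. Fluorescence (ex 360/em 460 nm) change over 60 min gave % inhibition versus no-enzyme and no-compound controls; IC50 from 4-parameter fit.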

[2] = tested on: IL-2 release from stimulated Jurkat cells; assay: Human IL-2 Release Phenotypic Assay (Assay 3); type: cell-based; settings: Homo sapiens, Jurkat, 48 h, Jurkat cells (clone E6-1), 200 ng/ml PMA + 300 ng/ml ionomycin, IL-2 in supernatant by ELISA
Description: Human IL-2 Release Phenotypic Assay (Assay 3)
This assay measured the inhibition by MALT1 inhibitors of the IL-2 release from stimulated Jurkat cells, a human immortalized T lymphocyte cell line. IL-2 production from Jurkat cells is regulated by activation of NFκB signalling, which is in turn regulated by MALT1 protease activity.
Jurkat cells (clone E6-1, ATCC) were cultured in RPMI1640 supplemented with 10% (v/v) FBS and 1% (v/v) penicillin/streptomycin (100× liquid stocks). Cells were seeded in 96-well white tissue culture-treated plates (Perkin Elmer) at 50 000 cells/well and incubated overnight at 37° C., 5% CO2. Test compounds in DMSO at half-log dilutions were added to the cells and incubated for 30 mins. Final DMSO concentration was 0.5%. Cells were then stimulated with 200 ng/ml PMA+300 ng/ml ionomycin and incubated for 48 hours. IL-2 present in the supernatant was then measured by ELISA according to the kit instructions (ELISA MAX Deluxe Set Human IL-2, BioLegend). % inhibition was calculated for each well, using 30 μM of the commercially available MALT1 inhibitor, MLT-748, for 100% inhibition controls and no compound for 0% inhibition controls. IC50 values were calculated using GraphPad Prism using 4-parameter non-linear regression curve fit.

[3] = biological target: FL hMALT1 enzyme (Homo sapiens (Human), UniProt Q9UDY8); assay: MALT1 Protease Assay 2 (Assay 2), higher sensitivity, cleavage of fluorogenic tetrapeptide substrate; type: biochemical; settings: FL hMALT1 1-10 nM, Ac-LVSR-AMC 100 μM, 0.7 M sodium citrate, 30 min preincubation, 60 min read
Sequence of FL hMALT1 enzyme (Q9UDY8 whole entry): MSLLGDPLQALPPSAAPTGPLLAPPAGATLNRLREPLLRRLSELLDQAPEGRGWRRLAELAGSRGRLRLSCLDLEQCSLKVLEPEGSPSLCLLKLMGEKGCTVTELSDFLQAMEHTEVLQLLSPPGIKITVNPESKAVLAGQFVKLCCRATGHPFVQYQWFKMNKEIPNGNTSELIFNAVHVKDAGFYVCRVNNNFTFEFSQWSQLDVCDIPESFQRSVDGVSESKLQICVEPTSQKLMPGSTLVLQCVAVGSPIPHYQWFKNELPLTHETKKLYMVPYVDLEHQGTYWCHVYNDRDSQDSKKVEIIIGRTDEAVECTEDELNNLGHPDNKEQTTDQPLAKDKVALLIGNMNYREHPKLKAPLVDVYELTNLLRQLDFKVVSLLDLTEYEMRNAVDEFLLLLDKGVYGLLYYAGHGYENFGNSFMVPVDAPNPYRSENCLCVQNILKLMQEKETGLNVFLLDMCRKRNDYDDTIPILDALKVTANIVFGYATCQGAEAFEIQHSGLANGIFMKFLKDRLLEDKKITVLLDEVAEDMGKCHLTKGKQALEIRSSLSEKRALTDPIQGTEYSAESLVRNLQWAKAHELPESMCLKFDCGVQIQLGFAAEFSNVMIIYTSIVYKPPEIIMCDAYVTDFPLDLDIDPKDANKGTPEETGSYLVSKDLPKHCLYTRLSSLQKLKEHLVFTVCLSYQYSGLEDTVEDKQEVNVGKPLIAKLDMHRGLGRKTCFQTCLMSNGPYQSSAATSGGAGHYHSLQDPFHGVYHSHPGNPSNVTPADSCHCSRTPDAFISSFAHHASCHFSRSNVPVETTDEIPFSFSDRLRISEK
Procedure, shortened: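 After 30 min room-temperature preincubation with compound (1% DMSO), enzyme (1-10 nM) cleaved 100 μM Ac-LVSR-AMC in pH 7.0 HEPES buffer containing 0.7 M sodium citrate, CHAPS and TCEP. Fluorescence (ex 360/em 460 nm) signal was taken as 60 min minus time 0. IC50 came from 4-parameter fits of % inhibition.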

Sequence of MALT1-GS-Ub (6-His-hMALT-1 residues 339-715 fused to ubiquitin) (Q9UDY8 other isoform, or with tags, fused parts or gaps): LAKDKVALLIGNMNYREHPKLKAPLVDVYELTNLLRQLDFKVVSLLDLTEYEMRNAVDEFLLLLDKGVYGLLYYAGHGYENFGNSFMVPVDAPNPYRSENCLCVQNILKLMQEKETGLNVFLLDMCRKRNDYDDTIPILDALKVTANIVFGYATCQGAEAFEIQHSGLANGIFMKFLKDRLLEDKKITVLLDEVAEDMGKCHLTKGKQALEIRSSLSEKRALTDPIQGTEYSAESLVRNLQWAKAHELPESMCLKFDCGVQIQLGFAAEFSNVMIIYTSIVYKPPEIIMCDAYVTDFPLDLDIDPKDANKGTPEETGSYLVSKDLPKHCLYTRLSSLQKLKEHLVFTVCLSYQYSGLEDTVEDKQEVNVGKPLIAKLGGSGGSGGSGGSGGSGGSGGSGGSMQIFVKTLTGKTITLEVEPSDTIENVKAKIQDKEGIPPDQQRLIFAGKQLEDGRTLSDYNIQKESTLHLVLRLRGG

IC50 [1]: 3.9 µM
IC50 [2]: > 10 µM
IC50 [3]: 1.4 µM
SMILES: Cc1ncc2c(c1Br)OCCN2C(=O)Nc1cnc(-n2nccn2)c(Cl)c1 [Example 41, 8-Bromo-N-(5-chloro-6-(2H-1,2,3-triazol-2-yl)pyridin-3-yl)-7-methyl-2,3-dihydro-4H-pyrido[4,3-b][1,4]oxazine-4-carboxamide]
